Reference: PubChem BioAssay AID248 (DTP/NCI, 2004)
Values joined by “and” are separate entries in the source; they are usually repeats but may differ in a detail not shown here. Equal values may be shown once. Toxic doses and inconclusive results are not listed. Cut-off read from the data, not from the text of the source: active = T/C of 150% or more; inactive = T/C below 125%.

Test system: L1210 leukemia ip in BDF1 mice, survival T/C
Assay: NCI In Vivo Anticancer Drug Screen. Data for tumor model L1210 Leukemia (intraperitoneal) in B6D2F1 (BDF1) mice
Details: endpoint: mean survival time, higher = longer survival
Outline: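 Antitumor effect is assessed in tumor-bearing animals. Survival in the compound arm is compared with a vehicle-dosed control arm and expressed as their quotient.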

[1] = dose: 50.0 mg/kg/injection, schedule: Q01DX001 (ip), vehicle: saline with Tween-80
[2] = dose: 100.0 mg/kg/injection, schedule: Q01DX001 (ip), vehicle: saline with Tween-80
[3] = dose: 200.0 mg/kg/injection, schedule: Q01DX001 (ip), vehicle: saline with Tween-80
[4] = dose: 100.0 mg/kg/injection, schedule: Q04DX002 (ip), vehicle: Klucel (hydroxypropylcellulose) (HPC)
[5] = dose: 100.0 mg/kg/injection, schedule: Q01DX001 (ip), vehicle: other
[6] = dose: 200.0 mg/kg/injection, schedule: Q01DX001 (ip), vehicle: other
[7] = dose: 400.0 mg/kg/injection, schedule: Q01DX001 (ip), vehicle: other
[8] = dose: 100.0 mg/kg/injection, schedule: Q01DX009 (ip), vehicle: Klucel (hydroxypropylcellulose) (HPC)
[9] = dose: 100.0 mg/kg/injection, schedule: Q04DX003 (ip), vehicle: Klucel (hydroxypropylcellulose) (HPC)
[10] = dose: 200.0 mg/kg/injection, schedule: Q01DX009 (ip), vehicle: Klucel (hydroxypropylcellulose) (HPC)
[11] = dose: 200.0 mg/kg/injection, schedule: Q04DX003 (ip), vehicle: Klucel (hydroxypropylcellulose) (HPC)
[12] = dose: 400.0 mg/kg/injection, schedule: Q04DX003 (ip), vehicle: Klucel (hydroxypropylcellulose) (HPC)
[13] = dose: 100.0 mg/kg/injection, schedule: Q01DX009 (ip), vehicle: saline with Tween-80
[14] = dose: 50.0 mg/kg/injection, schedule: Q04DX002 (ip), vehicle: saline
[15] = dose: 100.0 mg/kg/injection, schedule: Q04DX002 (ip), vehicle: saline
[16] = dose: 200.0 mg/kg/injection, schedule: Q04DX002 (ip), vehicle: saline
[17] = dose: 100.0 mg/kg/injection, schedule: Q01DX001 (ip), vehicle: Klucel (hydroxypropylcellulose) (HPC)
[18] = dose: 200.0 mg/kg/injection, schedule: Q01DX001 (ip), vehicle: Klucel (hydroxypropylcellulose) (HPC)
[19] = dose: 400.0 mg/kg/injection, schedule: Q01DX001 (ip), vehicle: Klucel (hydroxypropylcellulose) (HPC)
[20] = dose: 400.0 mg/kg/injection, schedule: Q01DX009 (ip), vehicle: Klucel (hydroxypropylcellulose) (HPC)

Measured: T/C

CC(C)(C)C1=C(C(C)(C)C)CS(=O)(=O)C1
inactive: dose: 25.0 mg/kg/injection, schedule: Q01DX001 (ip), vehicle: saline with Tween-80 98 % of control | [1] 100 % of control | [2] 100 % of control and 107 % of control

Cn1cc2ccccc2n1
inactive: [1] 102 % of control | [2] 100 % of control | [3] 102 % of control

O=P(O)(c1ccccc1)c1ccccc1
inactive: [4] 102 % of control and 86 % of control | dose: 200.0 mg/kg/injection, schedule: Q04DX002 (ip), vehicle: Klucel (hydroxypropylcellulose) (HPC) 93 % of control and 89 % of control | dose: 400.0 mg/kg/injection, schedule: Q04DX002 (ip), vehicle: Klucel (hydroxypropylcellulose) (HPC) 96 % of control

NC(=O)CSc1cc(Cl)ccc1Cl
inactive: [5] 96 % of control | [6] 107 % of control | [7] 113 % of control

C(=Nc1ccc2c(c1)Cc1ccccc1-2)c1ccccc1
inactive: [8] 104 % of control | [9] 100 % of control | [10] 96 % of control | [11] 95 % of control | [12] 103 % of control

CSCC1OC(n2cnc3c(N)ncnc32)C(O)C1O (stereo unspecified)
inactive: [1] 96 % of control | [2] 96 % of control | [3] 96 % of control

CC(=O)OC12C=C(C)C(C3C(=O)OC(=O)C31)C(C)(C)C2 (stereo unspecified)
inactive: dose: 50.0 mg/kg/injection, schedule: Q01DX009 (ip), vehicle: saline 97 % of control | dose: 100.0 mg/kg/injection, schedule: Q01DX009 (ip), vehicle: saline 92 % of control | dose: 200.0 mg/kg/injection, schedule: Q01DX009 (ip), vehicle: saline 102 % of control

CN1CCC23c4c5ccc(O)c4OC2C(=O)CCC3C1C5 (stereo unspecified)
inactive: dose: 75.0 mg/kg/injection, schedule: Q01DX001 (ip), vehicle: saline 95 % of control

CC(=O)OC(C(C)=O)c1ccccc1 (stereo unspecified)
inactive: dose: 50.0 mg/kg/injection, schedule: Q01DX001 (ip), vehicle: saline 101 % of control | dose: 100.0 mg/kg/injection, schedule: Q01DX001 (ip), vehicle: saline 101 % of control | dose: 200.0 mg/kg/injection, schedule: Q01DX001 (ip), vehicle: saline 98 % of control | dose: 400.0 mg/kg/injection, schedule: Q01DX001 (ip), vehicle: saline 101 % of control

CN(C)CC1CC2(CC(CN(C)C)C1=O)OCCO2 (stereo unspecified)
inactive: dose: 9.38 mg/kg/injection, schedule: Q01DX001 (ip), vehicle: other 98 % of control | dose: 18.75 mg/kg/injection, schedule: Q01DX001 (ip), vehicle: other 97 % of control | dose: 37.5 mg/kg/injection, schedule: Q01DX001 (ip), vehicle: other 104 % of control

CCc1cc(C)cc(OC(=O)Nc2cccc(Cl)c2)c1
inactive: [13] 88 % of control | dose: 200.0 mg/kg/injection, schedule: Q01DX009 (ip), vehicle: saline with Tween-80 90 % of control

CCSC(SCC)C(N)C(O)C(O)C(O)CO (stereo unspecified)
inactive: [14] 103 % of control | [15] 103 % of control | [16] 109 % of control

CCOC(=O)C1C(=O)C(=O)N2CCCC12 (stereo unspecified)
inactive: dose: 100.0 mg/kg/injection, schedule: Q04DX003 (ip), vehicle: saline 107 % of control | dose: 200.0 mg/kg/injection, schedule: Q04DX003 (ip), vehicle: saline 96 % of control | dose: 400.0 mg/kg/injection, schedule: Q04DX003 (ip), vehicle: saline 98 % of control

O=C(Nc1ncn[nH]1)C(Cl)(Cl)Cl
inactive: dose: 100.0 mg/kg/injection, schedule: Q04DX003 (ip), vehicle: carboxymethylcellulose (CMC) 95 % of control | dose: 200.0 mg/kg/injection, schedule: Q04DX003 (ip), vehicle: carboxymethylcellulose (CMC) 100 % of control | dose: 400.0 mg/kg/injection, schedule: Q04DX003 (ip), vehicle: carboxymethylcellulose (CMC) 97 % of control

CC(CO)(CO)N=Cc1cccc([N+](=O)[O-])c1
inactive: dose: 50.0 mg/kg/injection, schedule: Q01DX001 (ip), vehicle: carboxymethylcellulose (CMC) 103 % of control | dose: 100.0 mg/kg/injection, schedule: Q01DX001 (ip), vehicle: carboxymethylcellulose (CMC) 103 % of control | dose: 200.0 mg/kg/injection, schedule: Q01DX001 (ip), vehicle: carboxymethylcellulose (CMC) 103 % of control | dose: 400.0 mg/kg/injection, schedule: Q01DX001 (ip), vehicle: carboxymethylcellulose (CMC) 97 % of control

OCC1CCCCC1Cc1ccc(F)c2ccccc12 (stereo unspecified)
inactive: [17] 98 % of control | [18] 93 % of control | [19] 102 % of control

CC1(CBr)OCCCO1
inactive: dose: 25.0 mg/kg/injection, schedule: Q01DX009 (ip), vehicle: saline with Tween-80 96 % of control | dose: 25.0 mg/kg/injection, schedule: Q04DX002 (ip), vehicle: saline 93 % of control | dose: 50.0 mg/kg/injection, schedule: Q01DX009 (ip), vehicle: saline with Tween-80 103 % of control | [14] 93 % of control | [13] 103 % of control | dose: 100.0 mg/kg/injection, schedule: Q04DX002 (ip), vehicle: saline with Tween-80 95 % of control | [15] 93 % of control

CCOc1ccc(/C=C/c2ccc(OCC)cc2)cc1
inactive: [8] 90 % of control | [10] 90 % of control | [20] 93 % of control

C1CC2CC1C1CNCC21 (stereo unspecified)
inactive: dose: 5.0 mg/kg/injection, schedule: Q01DX001 (ip), vehicle: saline 105 % of control | dose: 10.0 mg/kg/injection, schedule: Q01DX001 (ip), vehicle: saline 97 % of control | dose: 20.0 mg/kg/injection, schedule: Q01DX001 (ip), vehicle: saline 105 % of control | dose: 40.0 mg/kg/injection, schedule: Q01DX001 (ip), vehicle: saline 100 % of control | dose: 50.0 mg/kg/injection, schedule: Q04DX002 (ip), vehicle: Klucel (hydroxypropylcellulose) (HPC) 97 % of control | dose: 80.0 mg/kg/injection, schedule: Q01DX001 (ip), vehicle: saline 91 % of control | [4] 97 % of control

O=c1ccn(CCC(COCc2ccccc2)COCc2ccccc2)c(=O)[nH]1
inactive: [9] 96 % of control | [11] 101 % of control | [12] 101 % of control

CC(=N)Oc1ccccc1
inactive: dose: 75.0 mg/kg/injection, schedule: Q01DX001 (ip), vehicle: Klucel (hydroxypropylcellulose) (HPC) 101 % of control | dose: 150.0 mg/kg/injection, schedule: Q01DX001 (ip), vehicle: Klucel (hydroxypropylcellulose) (HPC) 106 % of control | dose: 300.0 mg/kg/injection, schedule: Q01DX001 (ip), vehicle: Klucel (hydroxypropylcellulose) (HPC) 102 % of control

CCN(CC)CCOc1ccc(C=O)cc1
inactive: [15] 99 % of control | [16] 95 % of control

COC(=O)CCC(NC(=O)CCCNC(=O)OCc1ccccc1)C(=O)OC (stereo unspecified)
inactive: [17] 96 % of control | [5] 97 % of control | [8] 100 % of control | [9] 94 % of control | [18] 98 % of control | [6] 100 % of control | [10] 97 % of control | [11] 89 % of control | [19] 89 % of control | [7] 103 % of control | [20] 100 % of control | [12] 86 % of control
